target: His6-TEV-PDGFRβ (557-1016) (Homo sapiens (Human), UniProt P09619); test: PDGFRβ HTRF Assay; format: biochemical; settings: read-out: PDGFR HTRF IC50
How it was run: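 HTRF KinEASE-TK readout (665/620 nm ratio) of TK-biotin substrate phosphorylation by His-tagged PDGFRβ kinase domain. Enzyme and inhibitor preincubated 30 min, then ATP/substrate added for 3 h at room temperature before 60 min EDTA quench/detection.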

Chain of His6-TEV-PDGFRβ (557-1016) (P09619 557-1016): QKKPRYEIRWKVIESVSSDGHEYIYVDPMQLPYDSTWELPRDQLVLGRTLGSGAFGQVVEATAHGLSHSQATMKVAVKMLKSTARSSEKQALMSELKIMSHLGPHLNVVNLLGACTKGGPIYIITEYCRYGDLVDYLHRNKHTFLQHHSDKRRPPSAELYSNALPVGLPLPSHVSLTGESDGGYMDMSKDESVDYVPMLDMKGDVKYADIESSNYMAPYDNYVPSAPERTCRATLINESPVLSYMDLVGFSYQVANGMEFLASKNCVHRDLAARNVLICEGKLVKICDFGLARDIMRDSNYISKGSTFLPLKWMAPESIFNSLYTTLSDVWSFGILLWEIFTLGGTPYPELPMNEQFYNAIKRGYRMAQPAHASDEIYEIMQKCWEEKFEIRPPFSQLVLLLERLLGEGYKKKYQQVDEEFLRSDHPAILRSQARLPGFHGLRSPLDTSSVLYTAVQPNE

Q: For `CC(=O)Nc1cncc(-c2cn3ncc(C(=O)Nc4cc(C(=O)NCCN5CC6CCC5CC6)cnc4C)c3s2)c1` [Example 147, N-(5-((2-(2-azabicyclo[2.2.2]octan-2-yl)ethyl)carbamoyl)-2-methylpyridin-3-yl)-2-(5-acetamidopyridin-3-yl)pyrazolo[5,1-b]thiazole-7-carboxamide], which IC50 is on record?
A: 0.8 nM

Q: `Cc1ncc(C(=O)NCCN2CC3CCC2CC3)cc1NC(=O)c1cnn2cc(-c3ccncc3)sc12` [Example 148, N-(5-((2-(2-azabicyclo[2.2.2]octan-2-yl)ethyl)carbamoyl)-2-methylpyridin-3-yl)-2-(pyridin-4-yl)pyrazolo[5,1-b]thiazole-7-carboxamide] was tested. Which IC50 did it give?
A: 0.3 nM

Q: For `Cc1ncc(C(=O)NCCN2CC3CCC2CC3)cc1NC(=O)c1cnn2cc(-c3cccnc3)sc12` [Example 149, N-(5-((2-(2-azabicyclo[2.2.2]octan-2-yl)ethyl)carbamoyl)-2-methylpyridin-3-yl)-2-(pyridin-3-yl)pyrazolo[5,1-b]thiazole-7-carboxamide], which IC50 is on record?
A: 0.3 nM

Q: `Cc1ncc(C(=O)NCCN2CC3CCC2CC3)cc1NC(=O)c1cnn2cc(-c3cnn(CC(N)=O)c3)sc12` [Example 150, N-(5-((2-(2-azabicyclo[2.2.2]octan-2-yl)ethyl)carbamoyl)-2-methylpyridin-3-yl)-2-(1-(2-amino-2-oxoethyl)-1H-pyrazol-4-yl)pyrazolo[5,1-b]thiazole-7-carboxamide] was tested. Which IC50 did it give?
A: 0.6 nM

Q: For `Cc1ncc(C(=O)NCCN2CC3CCC2CC3)cc1NC(=O)c1cnn2cc(-c3cnn(CC#N)c3)sc12` [Example 151, N-(5-((2-(2-azabicyclo[2.2.2]octan-2-yl)ethyl)carbamoyl)-2-methylpyridin-3-yl)-2-(1-(cyanomethyl)-1H-pyrazol-4-yl)pyrazolo[5,1-b]thiazole-7-carboxamide], which IC50 is on record?
A: 0.3 nM

Q: How did the IC50 turn out when `Cc1ncc(C(=O)NCCN2CC(F)(F)C2)cc1NC(=O)c1cnn2cc(-c3ccncc3)sc12` [Example 152, N-(5-((2-(3,3-difluoroazetidin-1-yl)ethyl)carbamoyl)-2-methylpyridin-3-yl)-2-(pyridin-4-yl)pyrazolo[5,1-b]thiazole-7-carboxamide] was run?
A: 0.4 nM

Q: How did the IC50 turn out when `Cc1ncc(C(=O)NCCN2CCC3(CC3)C2)cc1NC(=O)c1cnn2cc(-c3ccncc3)sc12` [Example 153, N-(5-((2-(5-azaspiro[2.4]heptan-5-yl)ethyl)carbamoyl)-2-methylpyridin-3-yl)-2-(pyridin-4-yl)pyrazolo[5,1-b]thiazole-7-carboxamide] was run?
A: 0.4 nM

Q: Which IC50 does the source give for `Cc1ncc(C(=O)NCCN2CCC(F)(F)CC2)cc1NC(=O)c1cnn2cc(-c3ccncc3)sc12` [Example 154, N-(5-((2-(4,4-difluoropiperidin-1-yl)ethyl)carbamoyl)-2-methylpyridin-3-yl)-2-(pyridin-4-yl)pyrazolo[5,1-b]thiazole-7-carboxamide] here?
A: 0.3 nM

Q: For `Cc1ncc(C(=O)NCCN2CC(C)(C)C2)cc1NC(=O)c1cnn2cc(-c3ccncc3)sc12` [Example 155, N-(5-((2-(3,3-dimethylazetidin-1-yl)ethyl)carbamoyl)-2-methylpyridin-3-yl)-2-(pyridin-4-yl)pyrazolo[5,1-b]thiazole-7-carboxamide], which IC50 is on record?
A: 1 nM

Q: Which IC50 does the source give for `Cc1ncc(C(=O)NCCN2CCC(C)(C)C2)cc1NC(=O)c1cnn2cc(-c3ccncc3)sc12` [Example 156, N-(5-((2-(3,3-dimethylpyrrolidin-1-yl)ethyl)carbamoyl)-2-methylpyridin-3-yl)-2-(pyridin-4-yl)pyrazolo[5,1-b]thiazole-7-carboxamide] here?
A: 0.4 nM

Q: `Cc1ncc(C(=O)NCCN2CCC(F)(F)CC2)cc1NC(=O)c1cnn2cc(-c3cccnc3)sc12` [Example 157, N-(5-((2-(4,4-difluoropiperidin-1-yl)ethyl)carbamoyl)-2-methylpyridin-3-yl)-2-(pyridin-3-yl)pyrazolo[5,1-b]thiazole-7-carboxamide] was tested. Which IC50 did it give?
A: 0.6 nM

Q: Which IC50 does the source give for `Cc1ncc(C(=O)NCCN2CC(C)(C)C2)cc1NC(=O)c1cnn2cc(-c3cccnc3)sc12` [Example 158, N-(5-((2-(3,3-dimethylazetidin-1-yl)ethyl)carbamoyl)-2-methylpyridin-3-yl)-2-(pyridin-3-yl)pyrazolo[5,1-b]thiazole-7-carboxamide] here?
A: 0.9 nM

Q: How did the IC50 turn out when `Cc1ncc(C(=O)NCCN2CCC3(CC3)C2)cc1NC(=O)c1cnn2cc(-c3cccnc3)sc12` [Example 159, N-(5-((2-(5-azaspiro[2.4]heptan-5-yl)ethyl)carbamoyl)-2-methylpyridin-3-yl)-2-(pyridin-3-yl)pyrazolo[5,1-b]thiazole-7-carboxamide] was run?
A: 0.7 nM

Q: `Cc1ncc(C(=O)NCCN2CCC3(CC3)C2)cc1NC(=O)c1cnn2cc(-c3ccccn3)sc12` [Example 160, N-(5-((2-(5-azaspiro[2.4]heptan-5-yl)ethyl)carbamoyl)-2-methylpyridin-3-yl)-2-(pyridin-2-yl)pyrazolo[5,1-b]thiazole-7-carboxamide] was tested. Which IC50 did it give?
A: 0.2 nM

Q: With `Cc1ncc(C(=O)NCCN2CC(C)(C)C2)cc1NC(=O)c1cnn2cc(-c3cn(C)cn3)sc12` [Example 161] as the compound, how does the IC50 read?
A: 0.5 nM

Q: With `Cc1ncc(C(=O)NCCN2CCC3(CC3)C2)cc1NC(=O)c1cnn2cc(-c3cn(C)cn3)sc12` [Example 162, N-(5-((2-(5-azaspiro[2.4]heptan-5-yl)ethyl)carbamoyl)-2-methylpyridin-3-yl)-2-(1-methyl-1H-imidazol-4-yl)pyrazolo[5,1-b]thiazole-7-carboxamide] as the compound, how does the IC50 read?
A: 0.4 nM

Q: How did the IC50 turn out when `Cc1ncc(C(=O)NCCN2CCCC2(C)C)cc1NC(=O)c1cnn2cc(-c3cn(C)cn3)sc12` [Example 163, N-(5-((2-(2,2-dimethylpyrrolidin-1-yl)ethyl)carbamoyl)-2-methylpyridin-3-yl)-2-(1-methyl-1H-imidazol-4-yl)pyrazolo[5,1-b]thiazole-7-carboxamide] was run?
A: 0.3 nM

Q: With `COCCn1cc(-c2cn3ncc(C(=O)Nc4cc(C(=O)NCCN5CCC(F)(F)CC5)cnc4C)c3s2)cn1` [Example 165, N-(5-((2-(4,4-difluoropiperidin-1-yl)ethyl)carbamoyl)-2-methylpyridin-3-yl)-2-(1-(2-methoxyethyl)-1H-pyrazol-4-yl)pyrazolo[5,1-b]thiazole-7-carboxamide] as the compound, how does the IC50 read?
A: 0.6 nM

Q: Which IC50 does the source give for `COCCn1cc(-c2cn3ncc(C(=O)Nc4cc(C(=O)NCCN5CC(C)(C)C5)cnc4C)c3s2)cn1` [Example 166, N-(5-((2-(3,3-dimethylazetidin-1-yl)ethyl)carbamoyl)-2-methylpyridin-3-yl)-2-(1-(2-methoxyethyl)-1H-pyrazol-4-yl)pyrazolo[5,1-b]thiazole-7-carboxamide] here?
A: 0.7 nM

Q: How did the IC50 turn out when `COCCn1cc(-c2cn3ncc(C(=O)Nc4cc(C(=O)NCCN5CCC(F)(F)C5)cnc4C)c3s2)cn1` [Example 167, N-(5-((2-(3,3-difluoropyrrolidin-1-yl)ethyl)carbamoyl)-2-methylpyridin-3-yl)-2-(1-(2-methoxyethyl)-1H-pyrazol-4-yl)pyrazolo[5,1-b]thiazole-7-carboxamide] was run?
A: 0.5 nM

Q: Which IC50 does the source give for `COCCn1cc(-c2cn3ncc(C(=O)Nc4cc(C(=O)NCCN5CC6(CCC6)C5)cnc4C)c3s2)cn1` [Example 168, N-(5-((2-(2-azaspiro[3.3]heptan-2-yl)ethyl)carbamoyl)-2-methylpyridin-3-yl)-2-(1-(2-methoxyethyl)-1H-pyrazol-4-yl)pyrazolo[5,1-b]thiazole-7-carboxamide] here?
A: 0.6 nM

— patent publication US20240109917A1 (ACTELION PHARMACEUTICALS LTD, priority 2020, published 2024)
